Test results: PMC12427625, “Heterochannels Kv(1.1-1.2)2 and Their Interactions with Pore Blockers” (Cells, 2025)
Read-outs that look alike come from different tables or passages of the source. Bridge positions count the residues as written; N and C are the ends. Peptide text beside a SMILES is read from it.

Key:
[1] = target: T1, human heterochannels Kv(1.1-1.2)2 (Homo sapiens, UniProt P16389+Q09470, S369T/S371T); assay: Competitive binding of peptide and HgTx-G to Kv(1.1-1.2)2 heterochannels; details: for Kd: Kv(1.1-1.2)2 formed by K-Kv1.1-1.2, competitive displacement of 0.5 nM HgTx-G, complete medium, 1 h, Cheng-Prusoff, mean ± SEM of three independent experiments, read-out: apparent dissociation constant (Kap); for fold lower activity compared to Ce1: Kv(1.1-1.2)2, vs Ce1; for affinity for Kv(1.1-1.2)2 in words: Kv(1.1-1.2)2, competitive binding with HgTx-G; for displacement of HgTx-G: 0.5 nM HgTx-G, 10 nM HgTx1 (Figure 1)
T1 construct: expressed in transfected cells; host or cells: mouse neuroblastoma Neuro-2a cells transfected with pmKate2-KCNA1-KCNA2
Source text: To construct the gene encoding a fluorescent concatenated dimer mKate2-Kv1.1-Kv1.2 (K-Kv1.1-1.2), a cloning strategy was used, in which the C-terminus of the human Kv1.1 α-subunit was fused end-to-end to the N-terminus of the human Kv1.2 α-subunit via a short KL linker that corresponds to the HindIII restriction site. Here, we followed the design of the α-subunit concatemers proposed earlier. The previously obtained plasmids pmKate2-KCNA1 and pmKate2-KCNA2, which coded for mKate2-Kv1.1 (K-Kv1.1) and mKate2-Kv1.2 (K-Kv1.2) fusion proteins, were used for cloning. In these proteins, both human α-subunits Kv1.1 and Kv1.2 are N-terminally tagged with the red fluorescent protein mKate2 and harbor single mutations (S369T in Kv1.1, and S371T in Kv1.2) that improve the surface presentation of the homotetrameric channels. At first, pmKate2-KCNA1stopless was generated by amplification of the KCNA1 gene lacking TAA stop codon in a polymerase chain reaction (PCR) using a pair of oligonucleotide primers Kcna1-f1 (5′-[…]-3′) and Kcna1-Stop-r1 (5′-[…]-3′; BglII and HindIII sites are underlined). The obtained DNA fragment was hydrolyzed by BglII/HindIII restriction endonucleases and cloned into pmKate2-KCNA1 plasmid to substitute KCNA1 for KCNA1stopless. The obtained plasmid pmKate2-KCNA1stopless was further used as a vector to produce the KCNA1-KCNA2 dimer. For this, the KCNA2 gene was amplified in PCR using primers Kcna2-Hind-f1 (5′- […]-3′) and Kcna2-Sal-r1 ([…]-3′; HindIII, SalGI, and PstI sites are underlined; TAA stop codon is marked in bold) and cloned into HindIII/SalI sites of pmKate2-KCNA1stopless. The resulting pmKate2-KCNA1-KCNA2 plasmid encoded K-Kv1.1-1.2.
To analyze the binding of HgTx-G to heterochannels, HgTx-G (0.032–2 nM) was added to cells in the complete medium for 1 h. In the experiments with competitive binding, HgTx-G (0.5 nM) was added to cells, together with the studied peptide ([…]; 1.25–100 nM ChTx; 0.5–20 nM AgTx2, 2–10 nM MeKTx11-1, 0.063–1 nM Ce1, 0.063–1 nM Ce4, or 1 µM ScyTx), and incubated in the complete medium for 1 h.
Confocal microscopy measurements were carried out with the SP2 laser scanning confocal microscope (Leica Microsystems GmbH, Wetzlar, Germany), using the 63× water-immersion objective (HCX PL APO, NA = 1.2). Axial and lateral resolutions were 0.6 and 0.2 µm.
Fluorescence of proteins labeled with mKate2 was excited at 561 nm and detected in the 680–800 nm region. Fluorescence of HgTx-G was excited at 488 nm and recorded in the 495–540 nm region. The fluorescent probes of various cellular organelles were excited at 488 nm and detected in the 495–540 nm region.
Quantitative analysis of HgTx-G interaction with heterochannels was performed following the procedure developed previously. Briefly, confocal images of cells were used to calculate the ratio of the fluorescence intensity of HgTx-G bound to heterochannels to the fluorescence intensity of membrane-embedded heterochannels for each measured cell. This ratio was averaged over a sample of measured cells (20–30 cells) to obtain the Rav value and its standard deviation.
To characterize the affinity of unlabeled peptide for heterochannels, the competitive binding of this peptide and HgTx-G to heterochannels was measured at the constant concentration of HgTx-G (L) and increasing concentration (C) of the peptide. Rav data were calculated, plotted as a function of C, and fitted with the following equation:Rav(C) = Rav0/(1 + C/DC50)(2) where DC50 is the peptide concentration displacing 50% of HgTx-G from the complex with heterochannels, and Rav0 is Rav at C = 0.
Further, the Cheng–Prusoff equation was used to calculate the apparent dissociation constant (Kap) of the complex between the studied peptide and heterochannels:Kap = DC50/(1 + L/Kd)(3)
Three independent experiments were performed, and data on Kap were averaged and presented as mean ± SEM.

Kv1.3 [2] = assay: Ce4 activity on Kv1.3 (earlier data); details: Table 2 and data published previously [35]
Kv1.2 [3] = details: cited from earlier work; for Kd: Kv1.2, ref [35], read-out: Kap
Source text: (§1) These properties were also similar to those reported by other investigators for the corresponding homotetrameric channels, Kv1.1 and Kv1.2. It was also shown that the Kd of the complexes between HgTx-G, a high-affinity fluorescent ligand for the Kv1.1 and Kv1.2 channels, and ...

Kv1.1 [4] = details: cited from earlier work; for Kd: Kv1.1, read-out: Kap
Source text: as §1

Kv1.1 [5] = assay: Competitive binding, homotetrameric Kv1.1 channel (earlier data); details: Table 2 and data published previously [35]
Kv1.2 [6] = assay: Competitive binding, homotetrameric Kv1.2 channel (earlier data); details: Kv1.2 vs Kv1.1 (Table 2)
Kv1.6 = tested on: Kv1.6; set-up: method as in PMID 9446567; details: HEK-293 cells; ref [14]; cited from earlier work
Kv1.2 [7] = tested on: Kv1.2; set-up: method as in PMID 9446567; details: HEK-293 cells; ref [14]; cited from earlier work
Kv1.3 [8] = tested on: Kv1.3; set-up: method as in PMID 9446567; details: HEK-293 cells; ref [14]; cited from earlier work
Kv1.1 [9] = tested on: Kv1.1; set-up: method as in PMID 9446567; details: HEK-293 cells; ref [14]; cited from earlier work

T1 sequence (Q09470 whole entry S369T): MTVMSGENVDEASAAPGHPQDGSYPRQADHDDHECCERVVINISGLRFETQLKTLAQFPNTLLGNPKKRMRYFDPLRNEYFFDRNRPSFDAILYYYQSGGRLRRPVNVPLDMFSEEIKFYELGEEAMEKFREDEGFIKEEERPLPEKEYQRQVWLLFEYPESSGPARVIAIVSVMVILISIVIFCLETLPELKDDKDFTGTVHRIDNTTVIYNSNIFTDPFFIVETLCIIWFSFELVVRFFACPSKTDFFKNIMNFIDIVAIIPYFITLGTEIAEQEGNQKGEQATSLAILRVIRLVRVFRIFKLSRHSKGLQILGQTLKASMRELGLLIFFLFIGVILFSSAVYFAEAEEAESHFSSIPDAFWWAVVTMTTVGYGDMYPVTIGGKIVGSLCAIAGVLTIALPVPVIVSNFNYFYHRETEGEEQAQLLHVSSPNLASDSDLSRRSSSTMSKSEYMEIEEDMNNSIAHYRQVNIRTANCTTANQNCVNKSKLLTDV
T1 sequence (P16389 2-499 S371T): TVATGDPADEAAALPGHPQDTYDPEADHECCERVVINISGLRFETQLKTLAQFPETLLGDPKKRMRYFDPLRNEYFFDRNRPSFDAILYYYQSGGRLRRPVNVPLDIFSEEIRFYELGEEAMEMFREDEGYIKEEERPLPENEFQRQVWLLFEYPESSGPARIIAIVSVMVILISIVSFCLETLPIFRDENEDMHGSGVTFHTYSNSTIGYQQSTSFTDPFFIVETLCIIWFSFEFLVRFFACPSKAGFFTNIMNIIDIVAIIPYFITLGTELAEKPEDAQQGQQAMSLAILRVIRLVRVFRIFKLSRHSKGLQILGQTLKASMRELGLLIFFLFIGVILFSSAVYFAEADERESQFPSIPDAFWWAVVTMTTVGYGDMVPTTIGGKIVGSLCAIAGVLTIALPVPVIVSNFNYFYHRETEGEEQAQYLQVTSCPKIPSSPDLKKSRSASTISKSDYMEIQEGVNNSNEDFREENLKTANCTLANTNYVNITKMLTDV

CC[C@H](C)[C@@H]1NC(=O)[C@@H]2CSSC[C@@H]3NC(=O)[C@H](CCCCN)NC(=O)[C@H](CCCNC(=N)N)NC(=O)[C@H](CC(N)=O)NC(=O)[C@H](CCSC)NC(=O)[C@H](CSSC[C@H](NC(=O)[C@H](CO)NC(=O)[C@@H](NC(=O)[C@H](CC(N)=O)NC(=O)[C@@H](NC(=O)[C@@H]4CCCN4C(=O)[C@@H](NC(=O)CN)C(C)C)[C@@H](C)CC)C(C)C)C(=O)N[C@@H]([C@@H](C)O)C(=O)NCC(=O)N[C@@H](CO)C(=O)N4CCC[C@H]4C(=O)N[C@@H](CCC(N)=O)C(=O)N2)NC(=O)[C@H](CCCCN)NC(=O)CNC(=O)[C@H](Cc2ccccc2)NC(=O)[C@H](CCCNC(=N)N)NC(=O)[C@H](CCSC)NC(=O)CNC(=O)[C@H](C)NC(=O)[C@H](CC(=O)O)NC(=O)[C@H](CCCCN)NC(=O)[C@H](CSSC[C@@H](C(=O)N[C@H](C(=O)N2CCC[C@H]2C(=O)N[C@@H](CCCCN)C(=O)O)[C@@H](C)O)NC(=O)[C@H](Cc2c[nH]cn2)NC3=O)NC(=O)[C@@H]2CCCN2C(=O)[C@H](CCCCN)NC1=O [AgTx2, agitoxin 2]
Kd [1]: 0.25 ± 0.05 nM

CC[C@H](C)[C@H](NC(=O)[C@H](CCCCN)NC(=O)[C@H](Cc1ccc(O)cc1)NC(=O)[C@@H]1CSSC[C@@H]2NC(=O)[C@@H]3CCCN3C(=O)[C@H](CC(C)C)NC(=O)[C@H](CC(C)C)NC(=O)[C@@H]3CSSC[C@H](NC(=O)[C@H](CCCCN)NC(=O)CNC(=O)[C@H](CC(N)=O)NC(=O)[C@H](CCSC)NC(=O)[C@H](CSSC[C@H](NC(=O)[C@H](CCCCN)NC(=O)[C@@H](NC(=O)[C@H](CC(N)=O)NC(=O)[C@@H](NC(=O)[C@@H](NC(=O)[C@@H](N)[C@@H](C)O)[C@@H](C)CC)[C@@H](C)CC)C(C)C)C(=O)N[C@@H]([C@@H](C)O)C(=O)N[C@@H](CO)C(=O)N4CCC[C@H]4C(=O)N[C@@H](CCCCN)C(=O)N[C@@H](CCC(N)=O)C(=O)N3)NC(=O)[C@H](CCCCN)NC(=O)[C@H](C)NC(=O)CNC(=O)[C@H](C)NC(=O)[C@H](Cc3c[nH]cn3)NC(=O)[C@H]([C@@H](C)CC)NC(=O)CNC(=O)[C@H](Cc3ccc(O)cc3)NC(=O)[C@H]([C@@H](C)CC)NC(=O)[C@H](CCC(=O)O)NC(=O)[C@H](CCCCN)NC2=O)C(=O)N[C@@H](CCCCN)C(=O)N1)C(=O)O [Ce4] (H-TIINVKCTSPKQCLLPCKEIYGIHAGAKCMNGKCKCYKI-OH; disulfide 7-29, 13-34, 17-36; N-terminus and C-terminus assumed)
selectivity: activity against Kv1.2 and Kv(1.1-1.2)2 higher than against Kv1.3 (Kv1.3 [2]): > 1000 times | fold lower activity compared to Ce1 [1]: approximately threefold | Kd (Kv1.2 [3]): 0.03 ± 0.01 nM | Kd (Kv1.1 [4]; ref [35]): > 300 nM | selectivity: activity against Kv1.2 and Kv(1.1-1.2)2 higher than against Kv1.1 (Kv1.1 [5]): more than 10,000 times | activity against Kv1.2 compared to Kv1.1 (Kv1.2 [6]): much higher activity against the Kv1.2 channel than against the Kv1.1 channel

CC[C@H](C)[C@H](NC(=O)[C@@H](NC(=O)[C@@H](N)[C@@H](C)O)C(C)C)C(=O)N[C@@H](CC(N)=O)C(=O)N[C@H](C(=O)N[C@@H](CCCCN)C(=O)N[C@H]1CSSC[C@@H]2NC(=O)[C@H](CCCCN)NC(=O)[C@H](C)NC(=O)CNC(=O)[C@H](C)NC(=O)[C@H](Cc3c[nH]cn3)NC(=O)[C@@H]3CCCN3C(=O)CNC(=O)[C@H](Cc3ccc(O)cc3)NC(=O)[C@H](CC(C)C)NC(=O)[C@H](CC(=O)O)NC(=O)[C@H](CCCCN)NC(=O)[C@@H]3CSSC[C@@H](C(=O)N[C@@H](Cc4ccc(O)cc4)C(=O)N[C@@H](CC(N)=O)C(=O)N[C@@H](CC(N)=O)C(=O)O)NC(=O)[C@H](CCCCN)NC(=O)[C@H](CSSC[C@H](NC(=O)[C@H](CCC(N)=O)NC(=O)[C@H](CCCCN)NC(=O)[C@@H]4CCCN4C(=O)[C@H](CO)NC(=O)[C@H]([C@@H](C)O)NC1=O)C(=O)N[C@@H](CC(C)C)C(=O)N[C@@H](CCCCN)C(=O)N1CCC[C@H]1C(=O)N3)NC(=O)[C@H](CCCCN)NC(=O)CNC(=O)[C@H](CC(N)=O)NC(=O)[C@H](CCSC)NC2=O)C(C)C [Ce1] (H-TVINVKCTSPKQCLKPCKDLYGPHAGAKCMNGKCKCYNN-OH; disulfide 7-29, 13-34, 17-36; N-terminus and C-terminus assumed)
affinity for Kv(1.1-1.2)2 in words [1]: highest picomolar affinity | Kd (Kv1.2 [3]): 0.01 ± 0.002 nM | Kd (Kv1.1 [4]; ref [34]): 11 ± 5 nM | activity against Kv1.2 compared to Kv1.1 (Kv1.2 [6]): much higher activity against the Kv1.2 channel than against the Kv1.1 channel

CC[C@H](C)[C@@H]1NC(=O)CNC(=O)[C@H](Cc2ccccc2)NC(=O)[C@H](CCC(N)=O)NC(=O)[C@H](C)NC(=O)[C@H](CCCCN)NC(=O)[C@@H]2CSSC[C@@H](C(=O)N[C@@H](Cc3ccc(O)cc3)C(=O)N3CCC[C@H]3C(=O)N[C@@H](Cc3c[nH]cn3)C(=O)O)NC(=O)[C@H](CCCCN)NC(=O)[C@@H]3CSSC[C@H](NC(=O)[C@H](CCC(N)=O)NC(=O)[C@H](CCCCN)NC(=O)[C@@H]4CCCN4C(=O)[C@H](CO)NC(=O)[C@H]([C@@H](C)O)NC(=O)[C@@H](NC(=O)[C@H](CCCCN)NC(=O)[C@@H](NC(=O)[C@H](CC(=O)O)NC(=O)[C@@H](NC(=O)[C@@H](NC(=O)[C@@H](N)[C@@H](C)O)C(C)C)[C@@H](C)CC)C(C)C)CSSC[C@H](NC(=O)[C@H](CCCCN)NC(=O)[C@H](C)NC(=O)CNC(=O)[C@H](C)NC(=O)[C@H](CCCNC(=N)N)NC1=O)C(=O)N[C@@H](CCSC)C(=O)N[C@@H](CC(N)=O)C(=O)NCC(=O)N[C@@H](CCCCN)C(=O)N3)C(=O)N[C@@H](CC(C)C)C(=O)N1CCC[C@H]1C(=O)N1CCC[C@H]1C(=O)N2 [HgTx1, hongotoxin 1] (H-TVIDVKCTSPKQCLPPCKAQFGIRAGAKCMNGKCKCYPH-OH; disulfide 7-29, 13-34, 17-36; N-terminus and C-terminus assumed)
affinity, 86Rb+ flux inhibition (Kv1.6): nanomolar | affinity for Kv(1.1-1.2)2 in words [1]: very high affinity | fold lower activity compared to Ce1 [1]: approximately threefold | Kd [1]: 0.04 ± 0.01 nM | displacement of HgTx-G ([1]; channels formed by K-Kv1.1-1.2): displaced HgTx-G | displacement of HgTx-G ([1]; channels formed by K-Kv1.2-1.1): displaced HgTx-G | affinity, 86Rb+ flux inhibition (Kv1.2 [7]): subnanomolar | displacement of HgTx-G from the complexes (Kv1.2 [3]; K-Kv1.2-1.2 and K-Kv1.2, ref [28],[29]): displaced | Kd (Kv1.2 [3]): 0.02 ± 0.01 nM | displacement of HgTx-G from the complexes (Kv1.1 [4]; K-Kv1.1-1.1 and K-Kv1.1, ref [28],[29]): displaced | Kd (Kv1.1 [4]; ref [34]): 0.03 ± 0.02 nM | affinity, 86Rb+ flux inhibition (Kv1.3 [8]): subnanomolar | affinity, 86Rb+ flux inhibition (Kv1.1 [9]): subnanomolar
